Reference: ChEMBL document CHEMBL4334471, “Discovery of 1,8-disubstituted-[1,2,3]triazolo[4,5-c]quinoline derivatives as a new class of Hippo signaling pathway inhibitors” (Bioorg Med Chem Lett, 2019)

Columns and labels:
[1] = system: Tyrosine-protein kinase Blk (Homo sapiens), P51451 [UNDEFINED MUTATION]; assay: Inhibition of recombinant full length human BLK M287V mutant assessed as residual activity at 10 uM using poly(Glu, Tyr) 4:1 as substrate incubated for 40 mins in presence of [gamma-33ATP] by scintillation counting based radiometry assay relative to control
Tyrosine-protein kinase Blk (Homo sapiens), P51451 [UNDEFINED MUTATION], sequence (P51451 whole entry, looked up, stated change not applied, the tested form may be a part): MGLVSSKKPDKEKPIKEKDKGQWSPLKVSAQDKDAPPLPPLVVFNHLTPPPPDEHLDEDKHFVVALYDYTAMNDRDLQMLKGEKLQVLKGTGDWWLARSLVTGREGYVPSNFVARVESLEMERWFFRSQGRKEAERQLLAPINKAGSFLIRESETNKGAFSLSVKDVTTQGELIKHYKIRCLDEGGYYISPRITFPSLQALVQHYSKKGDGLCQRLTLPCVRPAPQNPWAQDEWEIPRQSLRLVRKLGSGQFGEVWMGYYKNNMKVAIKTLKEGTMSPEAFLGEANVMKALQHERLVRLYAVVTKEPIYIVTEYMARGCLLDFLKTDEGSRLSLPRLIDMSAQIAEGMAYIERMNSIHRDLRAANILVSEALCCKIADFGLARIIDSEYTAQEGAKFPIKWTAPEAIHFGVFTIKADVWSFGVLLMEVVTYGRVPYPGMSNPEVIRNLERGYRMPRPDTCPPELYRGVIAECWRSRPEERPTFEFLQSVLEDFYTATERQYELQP

[2] = target: CDK4/Cyclin D3 (Homo sapiens) (UniProt P11802+P30281); assay: Inhibition of recombinant full length human CDK4/CyclinD3 assessed as residual activity at 10 uM using Rb fragment as substrate incubated for 40 mins in presence of [gamma-33ATP] by scintillation counting based radiometry assay relative to control; assay type: protein-complex assay
[3] = target: CDK7/Cyclin H/MNAT1 (Homo sapiens) (UniProt P51946+P50613+P51948); assay: Inhibition of recombinant full length human CDK7/cyclinH/MAT1 assessed as residual activity at 10 uM using peptide as substrate incubated for 40 mins in presence of [gamma-33ATP] by scintillation counting based radiometry assay relative to control; assay type: protein-complex assay
[4] = target: Cyclin-dependent kinase 13/Cyclin-K (Homo sapiens) (UniProt Q14004+O75909); assay: Inhibition of recombinant full length human CDK13/cyclinK assessed as residual activity at 10 uM using RSRSRSRSRSRSR as substrate incubated for 40 mins in presence of [gamma-33ATP] by scintillation counting based radiometry assay relative to control; assay type: protein-complex assay
Cyclin-dependent kinase 13/Cyclin-K (Homo sapiens), sequence (O75909 whole entry, looked up): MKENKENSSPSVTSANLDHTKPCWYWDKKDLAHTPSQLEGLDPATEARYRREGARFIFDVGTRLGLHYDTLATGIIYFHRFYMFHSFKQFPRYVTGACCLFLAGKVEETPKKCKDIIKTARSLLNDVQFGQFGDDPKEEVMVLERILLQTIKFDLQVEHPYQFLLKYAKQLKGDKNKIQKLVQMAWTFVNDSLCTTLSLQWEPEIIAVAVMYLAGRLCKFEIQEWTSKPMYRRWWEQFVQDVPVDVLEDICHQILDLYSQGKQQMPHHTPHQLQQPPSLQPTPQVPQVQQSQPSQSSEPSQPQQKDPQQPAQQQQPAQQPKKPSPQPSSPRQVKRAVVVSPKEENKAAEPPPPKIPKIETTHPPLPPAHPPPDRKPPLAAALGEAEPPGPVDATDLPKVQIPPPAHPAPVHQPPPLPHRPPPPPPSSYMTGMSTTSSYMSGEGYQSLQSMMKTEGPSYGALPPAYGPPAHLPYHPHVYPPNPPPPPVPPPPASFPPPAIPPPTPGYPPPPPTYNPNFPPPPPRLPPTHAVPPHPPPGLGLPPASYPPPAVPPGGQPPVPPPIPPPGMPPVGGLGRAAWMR
Cyclin-dependent kinase 13/Cyclin-K (Homo sapiens), sequence (Q14004 whole entry, looked up): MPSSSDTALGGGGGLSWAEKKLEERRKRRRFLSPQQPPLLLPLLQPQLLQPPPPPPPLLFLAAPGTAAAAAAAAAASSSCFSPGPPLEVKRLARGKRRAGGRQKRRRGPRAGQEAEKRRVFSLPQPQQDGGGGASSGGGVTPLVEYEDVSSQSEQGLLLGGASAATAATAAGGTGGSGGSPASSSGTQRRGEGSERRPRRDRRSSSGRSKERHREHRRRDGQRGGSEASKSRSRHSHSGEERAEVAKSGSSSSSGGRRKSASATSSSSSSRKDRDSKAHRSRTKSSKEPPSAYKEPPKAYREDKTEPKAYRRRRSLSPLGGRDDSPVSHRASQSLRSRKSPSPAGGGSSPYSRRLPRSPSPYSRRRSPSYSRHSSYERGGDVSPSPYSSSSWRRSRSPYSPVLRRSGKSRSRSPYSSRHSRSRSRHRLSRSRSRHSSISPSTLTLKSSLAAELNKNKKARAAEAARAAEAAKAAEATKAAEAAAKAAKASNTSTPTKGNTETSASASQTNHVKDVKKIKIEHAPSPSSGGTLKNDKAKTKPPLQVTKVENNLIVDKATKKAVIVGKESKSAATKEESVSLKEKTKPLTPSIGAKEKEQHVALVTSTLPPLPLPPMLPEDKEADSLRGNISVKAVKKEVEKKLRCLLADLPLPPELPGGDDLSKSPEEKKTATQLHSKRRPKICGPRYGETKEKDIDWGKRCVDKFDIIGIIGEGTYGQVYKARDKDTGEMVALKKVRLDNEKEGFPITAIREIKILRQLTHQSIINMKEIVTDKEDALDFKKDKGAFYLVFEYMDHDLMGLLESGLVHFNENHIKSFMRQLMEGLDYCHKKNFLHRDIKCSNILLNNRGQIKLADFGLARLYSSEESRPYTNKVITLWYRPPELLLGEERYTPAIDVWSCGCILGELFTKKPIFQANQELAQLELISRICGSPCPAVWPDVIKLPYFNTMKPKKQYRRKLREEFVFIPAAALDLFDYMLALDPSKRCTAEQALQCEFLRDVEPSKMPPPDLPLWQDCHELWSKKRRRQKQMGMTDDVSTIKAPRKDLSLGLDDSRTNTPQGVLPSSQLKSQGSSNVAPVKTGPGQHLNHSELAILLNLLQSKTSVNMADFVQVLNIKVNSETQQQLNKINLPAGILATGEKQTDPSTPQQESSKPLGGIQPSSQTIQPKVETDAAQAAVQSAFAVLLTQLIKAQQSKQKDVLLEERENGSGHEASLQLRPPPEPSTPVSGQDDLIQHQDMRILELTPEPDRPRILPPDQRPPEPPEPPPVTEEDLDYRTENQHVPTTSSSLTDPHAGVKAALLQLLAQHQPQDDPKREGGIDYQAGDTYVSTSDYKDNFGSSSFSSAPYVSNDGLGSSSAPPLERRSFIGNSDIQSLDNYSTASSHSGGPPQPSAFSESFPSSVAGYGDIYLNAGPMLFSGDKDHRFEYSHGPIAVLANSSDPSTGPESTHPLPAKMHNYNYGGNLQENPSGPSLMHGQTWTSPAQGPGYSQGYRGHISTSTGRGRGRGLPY

[5] = target: Cyclin-Y/Cyclin-dependent kinase 16 (Homo sapiens) (UniProt Q00536+Q8ND76); assay: Inhibition of recombinant full length human CDK16/cyclinY assessed as residual activity at 10 uM using PKSPKARKKL as substrate incubated for 120 mins in presence of [gamma-33ATP] by scintillation counting based radiometry assay relative to control; assay type: protein-complex assay
[6] = target: Cyclin-dependent kinase-like 4 (Homo sapiens) (UniProt Q5MAI5); assay: Inhibition of recombinant full length human CDKL4 assessed as residual activity at 10 uM in presence of [gamma-33ATP] by scintillation counting based radiometry assay relative to control
[7] = target: Casein kinase I isoform gamma-1 (Homo sapiens) (UniProt Q9HCP0); assay: Inhibition of recombinant human CK1gamma1 assessed as residual activity at 10 uM using KRRRALS(p)VASLPGL as substrate incubated for 40 mins in presence of [gamma-33ATP] by scintillation counting based radiometry assay relative to control
[8] = system: Discoidin domain-containing receptor 2 (Homo sapiens), Q16832 [UNDEFINED MUTATION]; assay: Inhibition of recombinant human DDR2 S642A mutant (467 to end residues) assessed as residual activity at 10 uM using KKSRGDYMTMQIG as substrate at 40 mins in presence of [gamma-33ATP] by scintillation counting based radiometry assay relative to control
[9] = system: Fibroblast growth factor receptor 1 (Homo sapiens), P11362 [V561M]; assay: Inhibition of recombinant human FGFR1 V561M mutant (456 to 765 residues) assessed as residual activity at 10 uM using KKKSPGEYVNIEF as substrate at 40 mins in presence of [gamma-33ATP] by scintillation counting based radiometry assay relative to control
[10] = target: Rhodopsin kinase GRK7 (Homo sapiens) (UniProt Q8WTQ7); assay: Inhibition of recombinant full length human GRK7 assessed as residual activity at 10 uM using casein as substrate at 40 mins in presence of [gamma-33ATP] by scintillation counting based radiometry assay relative to control
[11] = target: Mitogen-activated protein kinase 9 (Homo sapiens) (UniProt P45984); assay: Inhibition of human JNK2alpha2 assessed as residual activity at 10 uM using ATF2 as substrate after 40 mins by [gamma-33ATP] radiometric assay relative to control
Mitogen-activated protein kinase 9 (Homo sapiens), sequence (P45984 whole entry, looked up): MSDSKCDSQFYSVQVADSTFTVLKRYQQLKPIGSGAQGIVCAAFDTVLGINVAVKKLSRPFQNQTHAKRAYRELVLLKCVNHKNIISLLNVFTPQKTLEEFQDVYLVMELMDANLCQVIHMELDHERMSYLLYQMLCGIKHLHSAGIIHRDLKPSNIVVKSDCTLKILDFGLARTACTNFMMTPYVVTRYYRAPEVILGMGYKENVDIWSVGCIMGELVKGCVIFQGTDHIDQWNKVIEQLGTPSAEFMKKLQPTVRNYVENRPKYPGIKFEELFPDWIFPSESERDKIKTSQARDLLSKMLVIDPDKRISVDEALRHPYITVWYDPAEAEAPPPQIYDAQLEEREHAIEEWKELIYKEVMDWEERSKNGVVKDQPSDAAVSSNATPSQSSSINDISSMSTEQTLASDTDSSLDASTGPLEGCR

[12] = target: Mitogen-activated protein kinase 1 (Homo sapiens) (UniProt P28482); assay: Inhibition of recombinant full length human MAPK1 assessed as residual activity at 10 uM using myelin basic protein as substrate incubated for 40 mins in presence of [gamma-33ATP by scintillation counting based radiometry assay relative to control
[13] = target: 3-phosphoinositide-dependent protein kinase 1 (Homo sapiens) (UniProt O15530); assay: Inhibition of recombinant human PDK1 (52 to end residues) assessed as residual activity at 10 uM using PDKtide as substrate incubated for 40 mins in presence of [gamma33P]ATP by scintillation counting based radiometry assay relative to control
[14] = target: cGMP-dependent protein kinase 1 (Homo sapiens) (UniProt Q13976); assay: Inhibition of recombinant full-length human PKG1beta assessed as residual activity at 10 uM using RRRLSFAEPG as substrate incubated for 40 mins in presence of [gamma33P]ATP by scintillation counting based radiometry assay relative to control
cGMP-dependent protein kinase 1 (Homo sapiens), sequence (Q13976 whole entry, the tested form may be a part): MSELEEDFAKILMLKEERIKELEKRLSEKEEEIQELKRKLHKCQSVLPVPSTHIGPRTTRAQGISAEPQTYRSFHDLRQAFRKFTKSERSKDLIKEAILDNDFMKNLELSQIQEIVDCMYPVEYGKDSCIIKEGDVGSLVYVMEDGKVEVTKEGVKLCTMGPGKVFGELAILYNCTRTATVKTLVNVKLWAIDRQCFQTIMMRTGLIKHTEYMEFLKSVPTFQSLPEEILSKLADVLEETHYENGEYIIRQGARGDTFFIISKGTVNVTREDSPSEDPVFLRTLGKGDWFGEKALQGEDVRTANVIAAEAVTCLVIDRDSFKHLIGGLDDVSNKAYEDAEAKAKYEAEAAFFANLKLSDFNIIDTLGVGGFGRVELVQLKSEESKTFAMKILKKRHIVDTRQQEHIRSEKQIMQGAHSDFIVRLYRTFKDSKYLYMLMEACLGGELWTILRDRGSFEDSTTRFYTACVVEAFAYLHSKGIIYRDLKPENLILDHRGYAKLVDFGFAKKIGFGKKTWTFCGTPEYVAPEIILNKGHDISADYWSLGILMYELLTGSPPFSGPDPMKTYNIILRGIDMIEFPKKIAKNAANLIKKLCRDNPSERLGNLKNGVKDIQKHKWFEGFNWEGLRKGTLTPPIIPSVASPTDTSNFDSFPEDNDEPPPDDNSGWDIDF

Homo sapiens [15] = species: Homo sapiens; assay: Inhibition of recombinant human Plk4 S34T mutant (1 to 273 residues) assessed as residual activity at 10 uM using casein as substrate incubated for 40 mins in presence of [gamma33P]ATP by scintillation counting based radiometry assay relative to control
[16] = target: TGF-beta receptor type-2 (Homo sapiens) (UniProt P37173); assay: Inhibition of recombinant human TGFBR2 (188 to end residues) assessed as residual activity at 10 uM using myelin basic protein as substrate incubated for 120 mins in presence of [gamma33P]ATP by scintillation counting based radiometry assay relative to control
[17] = target: BDNF/NT-3 growth factors receptor (Homo sapiens) (UniProt Q16620); assay: Inhibition of recombinant human TRKB (455 to end residues) assessed as residual activity at 10 uM using poly(Glu, Tyr) 4:1 as substrate incubated for 40 mins in presence of [gamma33P]ATP by scintillation counting based radiometry assay relative to control
[18] = target: Testis-specific serine/threonine-protein kinase 1 (Homo sapiens) (UniProt Q9BXA7); assay: Inhibition of recombinant full-length human TSSK1 assessed as residual activity at 10 uM using KKKVSRSGLYRSPSMPENLNRPR as substrate incubated for 40 mins in presence of [gamma33P]ATP by scintillation counting based radiometry assay relative to control
[19] = target: Tau-tubulin kinase 1 (Homo sapiens) (UniProt Q5TCY1); assay: Inhibition of recombinant human TTBK1 (1 to 479 residues) assessed as residual activity at 10 uM using casein as substrate incubated for 40 mins in presence of [gamma33P]ATP by scintillation counting based radiometry assay relative to control
Tau-tubulin kinase 1 (Homo sapiens), sequence (Q5TCY1 whole entry, the tested form may be a part): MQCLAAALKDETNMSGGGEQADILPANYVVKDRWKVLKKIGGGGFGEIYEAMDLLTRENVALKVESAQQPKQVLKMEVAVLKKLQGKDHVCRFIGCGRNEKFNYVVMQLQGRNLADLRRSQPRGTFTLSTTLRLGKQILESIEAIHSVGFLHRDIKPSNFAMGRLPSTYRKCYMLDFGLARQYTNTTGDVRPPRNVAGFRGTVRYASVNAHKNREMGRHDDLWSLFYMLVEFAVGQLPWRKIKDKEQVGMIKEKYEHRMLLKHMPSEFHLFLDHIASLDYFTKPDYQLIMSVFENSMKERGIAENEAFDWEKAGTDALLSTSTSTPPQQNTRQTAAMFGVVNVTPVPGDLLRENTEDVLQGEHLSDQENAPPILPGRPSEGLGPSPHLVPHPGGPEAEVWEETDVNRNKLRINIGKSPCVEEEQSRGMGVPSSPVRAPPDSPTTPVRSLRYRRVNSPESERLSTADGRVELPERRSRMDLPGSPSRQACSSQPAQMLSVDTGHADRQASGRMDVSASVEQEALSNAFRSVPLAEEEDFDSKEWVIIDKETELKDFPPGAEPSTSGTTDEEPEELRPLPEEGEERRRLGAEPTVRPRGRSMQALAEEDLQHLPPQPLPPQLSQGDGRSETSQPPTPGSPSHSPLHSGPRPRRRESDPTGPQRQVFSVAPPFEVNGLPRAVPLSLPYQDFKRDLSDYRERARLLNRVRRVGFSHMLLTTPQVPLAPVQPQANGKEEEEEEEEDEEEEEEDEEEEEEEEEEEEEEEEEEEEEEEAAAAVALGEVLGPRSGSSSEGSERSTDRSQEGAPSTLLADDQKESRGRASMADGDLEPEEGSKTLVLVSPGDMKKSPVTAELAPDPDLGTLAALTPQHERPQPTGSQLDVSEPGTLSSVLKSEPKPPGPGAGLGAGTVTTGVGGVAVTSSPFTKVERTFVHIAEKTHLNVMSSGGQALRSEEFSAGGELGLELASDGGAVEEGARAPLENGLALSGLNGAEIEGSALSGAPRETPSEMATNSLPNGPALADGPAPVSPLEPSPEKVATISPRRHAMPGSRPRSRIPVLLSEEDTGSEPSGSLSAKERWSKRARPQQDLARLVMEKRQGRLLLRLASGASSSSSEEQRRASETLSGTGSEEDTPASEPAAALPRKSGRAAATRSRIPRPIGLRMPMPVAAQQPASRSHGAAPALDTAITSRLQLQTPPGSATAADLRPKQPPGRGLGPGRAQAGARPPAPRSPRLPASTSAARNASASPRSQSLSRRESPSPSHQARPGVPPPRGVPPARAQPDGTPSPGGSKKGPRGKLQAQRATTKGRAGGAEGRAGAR

[20] = system: Dual specificity protein kinase TTK (Homo sapiens), P33981 [S389A]; assay: Inhibition of recombinant full-length human TTK S389A mutant assessed as residual activity at 10 uM using MBP as substrate incubated for 40 mins in presence of [gamma33P]ATP by scintillation counting based radiometry assay relative to control
Homo sapiens [21] = species: Homo sapiens; assay: Inhibition of recombinant human full length PI3K p110/p85 assessed as residual activity at 10 uM using phosphatidylinositol-4, 5-bisphosphate as substrate measured after 40 mins by fluorescence assay relative to control
A549 = assay: Inhibition of hippo signalling protein in human A549 cells cotransfected with CTGF promoter-driven firefly luciferase and CMV promoter-driven renilla luciferase gene assessed as increase in CTGF expression at 10 uM incubated for 24 hrs by dual-luciferase gene assay relative to control

C[C@@H](c1ccccc1)n1nnc2cnc3ccc(-c4cnc5[nH]ccc5c4)cc3c21
Activity [1]: 8% | Activity [2]: 74% | Activity [3]: 80% | Activity [4]: 84% | Activity [5]: 106% | Activity [6]: 96% | Activity [7]: 48% | Activity [8]: 35% | Activity [9]: 22% | Activity [10]: 90% | Activity [11]: 95% | Activity [12]: 100% | Activity [13]: 80% | Activity [14]: 66% | Activity (Homo sapiens [15]): 82% | Activity [16]: 87% | Activity [17]: 2% | Activity [18]: 74% | Activity [19]: 91% | Activity [20]: 2% | Activity (Homo sapiens [21]): 3 to 9% | fold change (FC) (A549): 13.5
